Test results as given in patent publication US8399465B2, “Compounds with two fused bicyclic heteroaryl moieties as modulators of leukotriene A4 hydrolase” (Janssen Pharmaceutica NV, priority 2009, dated 2013).
Structures can show the parent of a compound that is named as a salt.

target: T1, recombinant human LTA4 hydrolase (rhLTA4H) (Homo sapiens, UniProt P09960); assay: Recombinant human LTA4 hydrolase assay for LTA4 hydrolase inhibitor activity; format: biochemical; details: rhLTA4H, LTB4 by immunoassay; single determination or average of two or more; mark after value = form tested: ′ free base, ″ hydrochloride, ^ formate; read-out: IC50
T1 construct: made in house; host or cells: Spodoptera frugiperda (Sf-9) cells, baculovirus (pFastBac1)
T1 sequence (P09960 1-611): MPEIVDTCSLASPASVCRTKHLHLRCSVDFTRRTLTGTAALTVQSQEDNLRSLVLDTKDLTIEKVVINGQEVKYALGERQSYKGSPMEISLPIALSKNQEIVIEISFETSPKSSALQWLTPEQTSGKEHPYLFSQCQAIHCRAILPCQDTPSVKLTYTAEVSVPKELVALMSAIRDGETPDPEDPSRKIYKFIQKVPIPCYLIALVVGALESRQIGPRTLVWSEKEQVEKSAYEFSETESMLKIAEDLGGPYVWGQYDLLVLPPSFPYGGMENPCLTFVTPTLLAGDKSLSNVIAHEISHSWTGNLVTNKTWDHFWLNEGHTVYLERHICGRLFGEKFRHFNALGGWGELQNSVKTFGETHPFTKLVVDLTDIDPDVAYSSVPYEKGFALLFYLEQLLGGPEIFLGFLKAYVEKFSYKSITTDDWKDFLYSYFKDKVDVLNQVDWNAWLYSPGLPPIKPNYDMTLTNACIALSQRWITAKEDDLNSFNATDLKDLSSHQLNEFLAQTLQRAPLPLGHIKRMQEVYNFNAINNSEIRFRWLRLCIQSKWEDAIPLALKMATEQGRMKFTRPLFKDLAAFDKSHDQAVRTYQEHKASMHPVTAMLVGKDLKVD
Protocol: Assay 1: Recombinant Human LTA4 Hydrolase Assay for LTA4 Hydrolase Inhibitor Activity
Compounds of the present invention were tested for LTA4 hydrolase inhibitor activity against recombinant human LTA4 hydrolase (rhLTA4H). Vectors were prepared and used to express rhLTA4H essentially as follows: LTA4 hydrolase encoding DNA was amplified by polymerase chain reaction (PCR) using a human placental cDNA library as a template. […] The amplified 1.9 kb DNA fragment encoding LTA4 hydrolase was isolated and cloned into the pFastBac1 vector (Invitrogen). Recombinant baculovirus was generated as described by the manufacturer, and used to infect Spodoptera frugiperda (Sf-9) cells. […] The purified enzyme solution was adjusted to contain 0.29 mg/mL LTA4 hydrolase, 50 mM Tris (pH 8.0), 150 mM NaCl, 5 mM dithiothreitol, 50% glycerol, and EDTA-free Complete protease inhibitor cocktail (Roche).
LTA4 substrate was prepared from the methyl ester of LTA4 (Cayman Chemical) by treatment with 67 equiv of NaOH under nitrogen at rt for 40 min. The LTA4 substrate in its free acid form was kept frozen at −80° C. until needed. Each compound was diluted to different concentrations in assay buffer (from Assay Designs) containing 10% DMSO. A 25-μL aliquot of each compound dilution was incubated for 10 min at rt with an equal volume of assay buffer containing 10 ng of recombinant human LTA4H. The solution was then adjusted to 200 μL with assay buffer. […] Each reaction was carried out at rt for 30 min. The reaction was stopped by diluting 10 μL of the reaction mixture with 200 μL of assay buffer. LTB4 was quantified in the diluted sample by a commercially available enzyme-linked immunoassay (Cayman Chemical Co.), as recommended by the manufacturer. Positive controls, under essentially identical conditions but without addition of an inhibitor compound, and negative controls, containing all assay components except enzyme, were routinely run in each experiment. IC50 values were determined by nonlinear regression of the activity data at different compound concentrations using Graphpad Prism 4.0, one site binding competition.
The values presented here are the result of a single determination or an average of two or more determinations. Compounds that were not tested are indicated as such by a “NT” designation.

IC50 [nM] | Compound
283 | c1cnc2nc(Oc3ccc4oc(CN5CC6COCC6C5)cc4c3)sc2c1 (centres unmarked) [Example 113, 2-[2-(Tetrahydro-furo[3,4-c]pyrrol-5-ylmethyl)-benzofuran-5-yloxy]-thiazolo[4,5-b]pyridine]
120 | O=C(C1CCN(Cc2cc3ccc(Oc4nc5ncccc5s4)cc3o2)CC1)N1CCCC1 [Example 205, Pyrrolidin-1-yl-{1-[6-(thiazolo[4,5-b]pyridin-2-yloxy)-benzofuran-2-ylmethyl]-piperidin-4-yl}-methanone]
194 | c1cnc2nc(Oc3ccc4oc(CN5CCOCC5)cc4c3)sc2c1 [Example 97, 2-(2-Morpholin-4-ylmethyl-benzofuran-5-yloxy)-thiazolo[4,5-b]pyridine]
19 | c1ccc2c(c1)CCN(Cc1coc3cc(Oc4nc5ncccc5s4)ccc13)C2 [Example 293, 2-[6-(Thiazolo[4,5-b]pyridin-2-yloxy)-benzofuran-3-ylmethyl]-1,2,3,4-tetrahydro-isoquinoline formate]
1400 | c1ccc2sc(Oc3ccc4[nH]cc(CN5CCOCC5)c4c3)nc2c1 [Example 11, 2-(3-Morpholin-4-ylmethyl-1H-indol-5-yloxy)-benzothiazole]
591 | c1ccc2sc(Oc3ccc4[nH]cc(CN5CCCC5)c4c3)nc2c1 [Example 9, 2-(3-Pyrrolidin-1-ylmethyl-1H-indol-5-yloxy)-benzothiazole]
77 | c1ccc2sc(Oc3ccc4c(CN5CCCCC5)coc4c3)nc2c1 [Example 405, 2-(3-Piperidin-1-ylmethyl-benzofuran-6-yloxy)-benzothiazole]
31 | c1cnc2nc(Oc3ccc4c(CNCCN5CCCCC5)coc4c3)sc2c1 [Example 305, (2-Piperidin-1-yl-ethyl)-[6-(thiazolo[4,5-b]pyridin-2-yloxy)-benzofuran-3-ylmethyl]-amine]
169 | Fc1cnc2sc(Oc3ccc4c(CN5CCOCC5)c[nH]c4c3)nc2c1 [Example 60, 6-Fluoro-2-(3-morpholin-4-ylmethyl-1H-indol-6-yloxy)-thiazolo[5,4-b]pyridine]
1640 | CCn1c(CN2CCOCC2)cc2cc(Oc3nc4ccccc4s3)ccc21 [Example 63, 2-(1-Ethyl-2-morpholin-4-ylmethyl-1H-indol-5-yloxy)-benzothiazole]
108 | CC(=O)NC1CCN(Cc2coc3cc(Oc4nc5ncc(Cl)cc5s4)ccc23)CC1 [Example 254, N-{1-[6-(6-Chloro-thiazolo[4,5-b]pyridin-2-yloxy)-benzofuran-3-ylmethyl]-piperidin-4-yl}-acetamide formate]
< 1 | CCN(Cc1coc2cc(Oc3nc4ncccc4s3)ccc12)C1CCCCC1 [Example 318, Cyclohexyl-ethyl-[6-(thiazolo[4,5-b]pyridin-2-yloxy)-benzofuran-3-ylmethyl]-amine formate]
415 | c1ccc2sc(Oc3ccc4[nH]cc(CN5CCCCC5)c4c3)nc2c1 [Example 10, 2-(3-Piperidin-1-ylmethyl-1H-indol-5-yloxy)-benzothiazole]
1020 | O=C1Cc2cc(Cl)ccc2N1Cc1coc2cc(Oc3nc4ncccc4s3)ccc12 [Example 401, 5-Chloro-1-[6-(thiazolo[4,5-b]pyridin-2-yloxy)-benzofuran-3-ylmethyl]-1,3-dihydro-indol-2-one]
492 | c1ccc2sc(Oc3ccc4cc(CN5CCCCC5)oc4c3)nc2c1 [Example 406, 2-(2-Piperidin-1-ylmethyl-benzofuran-6-yloxy)-benzothiazole]
15 | c1ccc2c(c1)CC(NCc1coc3cc(Oc4nc5ncccc5s4)ccc13)C2 [Example 320, Indan-2-yl-[6-(thiazolo[4,5-b]pyridin-2-yloxy)-benzofuran-3-ylmethyl]-amine formate]
24 | CN1CCC(N(C)Cc2coc3cc(Oc4nc5ncccc5s4)ccc23)CC1 [Example 294, Methyl-(1-methyl-piperidin-4-yl)-[6-(thiazolo[4,5-b]pyridin-2-yloxy)-benzofuran-3-ylmethyl]-amine]
470 | O=C1CCCN1C1CCN(Cc2cc3ncc(Oc4nc5ncccc5s4)cc3o2)CC1 [Example 341, 1-{1-[6-(Thiazolo[4,5-b]pyridin-2-yloxy)-furo[3,2-b]pyridin-2-ylmethyl]-piperidin-4-yl}-pyrrolidin-2-one]
3430 | CC(=O)N1C[C@@H]2C[C@H]1CN2Cc1cc2ccc(Oc3nc4cccnc4s3)cc2o1 [Example 122, (1S,4S)-1-{5-[6-(Thiazolo[5,4-b]pyridin-2-yloxy)-benzofuran-2-ylmethyl]-2,5-diaza-bicyclo[2.2.1]hept-2-yl}-ethanone]
488 | CC(=O)N1C[C@@H]2C[C@H]1CN2Cc1cc2cc(Oc3nc4cccnc4s3)ccc2o1 [Example 121, (1S,4S)-1-{5-[5-(Thiazolo[5,4-b]pyridin-2-yloxy)-benzofuran-2-ylmethyl]-2,5-diaza-bicyclo[2.2.1]hept-2-yl}-ethanone]
52 | c1ccc(OCCNCc2coc3cc(Oc4nc5ncccc5s4)ccc23)cc1 [Example 319, (2-Phenoxy-ethyl)-[6-(thiazolo[4,5-b]pyridin-2-yloxy)-benzofuran-3-ylmethyl]-amine formate]
226 | O=C(O)CC1CCN(Cc2cc3ccc(Oc4nc5ccccc5s4)cc3o2)CC1 [Example 78, {1-[6-(Benzothiazol-2-yloxy)-benzofuran-2-ylmethyl]-piperidin-4-yl}-acetic acid formate]
765 | CC(C)(C)OC(=O)C1CCN(Cc2cc3ccc(Oc4nc5ncccc5s4)cc3o2)CC1 [Example 225, 1-[6-(Thiazolo[4,5-b]pyridin-2-yloxy)-benzofuran-2-ylmethyl]-piperidine-4-carboxylic acid tert-butyl ester]

Compound | IC50 [nM]
CC(=O)N1C[C@H]2CC[C@@H](C1)N2Cc1cc2ccc(Oc3nc4cccnc4s3)cc2o1 [Example 124, meso-1-{8-[6-(Thiazolo[5,4-b]pyridin-2-yloxy)-benzofuran-2-ylmethyl]-3,8-diaza-bicyclo[3.2.1]oct-3-yl}-ethanone] | 1470
CC(=O)N[C@@H]1C[C@H]2CC[C@@H](C1)N2Cc1cc2ncc(Oc3nc4ncccc4s3)cc2o1 [Example 336, meso-exo-N-{8-[6-(Thiazolo[4,5-b]pyridin-2-yloxy)-furo[3,2-b]pyridin-2-ylmethyl]-8-aza-bicyclo[3.2.1]oct-3-yl}-acetamide] | 110
NC(=O)N1C[C@H]2CC[C@@H](C1)N2Cc1cc2cc(Oc3nc4ccccc4s3)ccc2o1 [Example 173, meso-8-[5-(Benzothiazol-2-yloxy)-benzofuran-2-ylmethyl]-3,8-diaza-bicyclo[3.2.1]octane-3-carboxylic acid amide] | 187
CC(=O)N[C@H]1C[C@H]2CC[C@@H](C1)N2Cc1cc2cc(Oc3nc4cccnc4s3)ccc2o1 [Example 125, meso-endo-N-{8-[5-(Thiazolo[5,4-b]pyridin-2-yloxy)-benzofuran-2-ylmethyl]-8-aza-bicyclo[3.2.1]oct-3-yl}-acetamide] | 200
CC(=O)N[C@H]1C[C@H]2CC[C@@H](C1)N2CCc1coc2cc(Oc3nc4ncccc4s3)ccc12 [Example 131, meso-endo-N-(8-{2-[6-(Thiazolo[4,5-b]pyridin-2-yloxy)-benzofuran-3-yl]-ethyl}-8-aza-bicyclo[3.2.1]oct-3-yl)acetamide] | 5
CC(=O)N1C[C@H]2CC[C@@H](C1)N2CCc1coc2cc(Oc3nc4ncccc4s3)ccc12 [Example 130, meso-1-(8-{2-[6-(Thiazolo[4,5-b]pyridin-2-yloxy)-benzofuran-3-yl]-ethyl}-3,8-diaza-bicyclo[3.2.1]oct-3-yl)-ethanone] | 5
